{
  "source": "patent US20160367557A1",
  "about": "“HE[…] ACID DERIVATIVES WHICH ARE USEFUL IN THE TREATMENT, AMELIORATION OR PREVENTION OF A VIRAL DISEASE” (Savira pharmaceuticals GmbH, priority 2012, published 2016)",
  "key": {"[1]": {"tested_on": "MDCK cells", "assay": "Cytotoxicity in uninfected cells of the CPE assay", "assay_type": "cell-based, canine", "settings": "at 50 μM", "method": "After removal of the culture medium and one washing step with PBS, virus and compound were added together to the cells. In the wells used for cytotoxicity determination (i.e. in the absence of viral infection), no virus suspension was added. Instead, infection medium was added. Each treatment was conducted in two replicates. After incubation at 37° C., 5% CO2 for 48 hrs, each well was observed microscopically for apparent cytotoxicity, precipitate formation, or other notable abnormalities. Then, cell viability was determined using CellTiter-Glo luminescent cell viability assay (Promega). The supernatant was removed carefully and 65 μl of the reconstituted reagent were added to each well and incubated with gentle shaking for 15 min at room temperature. Then, 60 μl of the solution was transferred to an opaque plate and luminescence (RLU) was measured using Synergy HT plate reader (Biotek).\nRelative cell viability values of uninfected-treated versus uninfected-untreated cells were used to evaluate cytotoxicity of the compounds. Substances with a relative viability below 80% at the tested concentration were regarded as cytotoxic and retested at lower concentrations."}, "[2]": {"tested_on": "influenza A virus (IAV) A/Aichi/2/68 (H3N2)", "assay": "Cytopathic effect (CPE) assay", "assay_type": "cell-based", "settings": "MDCK cells, 48 hrs"}, "[3]": {"target": "T1, influenza A virus (IAV) PA-Nter fragment (amino acids 1-209) (Influenza A virus, UniProt P31343)", "T1 construct": "PA-Nter fragment (amino acids 1-209); made in house", "assay": "FRET endonuclease activity assay", "assay_type": "biochemical", "settings": "for IC50: calculated from initial reaction velocities (v0)"}},
  "data": [
    {"smiles": "O=C(O)c1cn(CCc2cccc(F)c2)c2cc(C3CC3)nn2c1=O", "values": [
      {"measurement": "melting point", "result": "220 to 225", "unit": "°C"}
    ]},
    {"smiles": "CCOC(=O)c1cn(CCc2ccc(Cl)cc2)c2cc(C3CC3)nn2c1=O", "values": [
      {"measurement": "melting point", "result": "190 to 195", "unit": "°C"}
    ]},
    {"smiles": "CCOC(=O)c1cn(CCc2cccc(C(F)(F)F)c2)c2cc(C3CC3)nn2c1=O", "values": [
      {"measurement": "melting point", "result": "140 to 145", "unit": "°C"}
    ]},
    {"smiles": "CCOC(=O)c1cn(CCCc2ccccc2)c2cc(C3CC3)nn2c1=O", "values": [
      {"measurement": "melting point", "result": "150 to 155", "unit": "°C"}
    ]},
    {"smiles": "CCOC(=O)c1cn(Cc2ccccc2)c2cc(C3CCCC3)nn2c1=O", "values": [
      {"measurement": "melting point", "result": "148 to 150", "unit": "°C"}
    ]},
    {"smiles": "O=C(O)c1c[nH]c2nc(NCc3cccc4ccccc34)nn2c1=O", "values": [
      {"measurement": "melting point", "result": "245 to 250", "unit": "°C"}
    ]},
    {"smiles": "CSC1=NC2C(=O)C(C(=O)O)=CN(Cc3ccccc3-c3ccccc3)C2S1", "note": "(stereo not drawn)", "values": [
      {"measurement": "Cytotoxicity (relative viability below 80% regarded as cytotoxic)", "setting": "[1]", "result": "Toxic"},
      {"measurement": "CPE activity in words", "setting": "[2]", "result": "inactive"}
    ]},
    {"smiles": "O=C(O)c1cn(Cc2ccccc2-c2ccccc2)c2nc(NCc3ccccc3)sc2c1=O", "values": [
      {"measurement": "FRET activity in words", "setting": "[3]", "result": "inactive"}
    ]},
    {"smiles": "O=C(O)c1cn(Cc2ccccc2-c2ccccc2)c2sc(NC3CCCC3)nc2c1=O", "values": [
      {"measurement": "Cytotoxicity (relative viability below 80% regarded as cytotoxic)", "setting": "[1]", "result": "toxic"},
      {"measurement": "CPE activity in words", "setting": "[2]", "result": "inactive"}
    ]},
    {"smiles": "O=C(O)c1cn(Cc2ccccc2-c2ccccc2)c2sc(N3CCCCC3)nc2c1=O", "values": [
      {"measurement": "FRET activity in words", "setting": "[3]", "result": "inactive"}
    ]},
    {"smiles": "CNC(=O)c1cn(Cc2ccccc2-c2ccccc2)c2sc(NCc3ccccc3)nc2c1=O", "values": [
      {"measurement": "FRET activity in words", "setting": "[3]", "result": "inactive"}
    ]},
    {"smiles": "O=C(O)c1cn(Cc2ccccc2-c2ccccc2)c2nc(NC3CCCC3)sc2c1=O", "values": [
      {"measurement": "FRET activity in words", "setting": "[3]", "result": "inactive"}
    ]},
    {"smiles": "O=C(O)c1cn(Cc2ccccc2-c2ccccc2)c2sc(NS(=O)(=O)c3ccc(Cl)cc3)nc2c1=O", "values": [
      {"measurement": "IC50", "setting": "[3]", "result": 2.2, "unit": "µM"},
      {"measurement": "IC50", "setting": "[2]; Influenza A virus, H3N2", "result": 18, "unit": "µM"}
    ]},
    {"smiles": "CCOC(=O)c1cn(Cc2ccccc2-c2ccccc2)c2sc(NS(=O)(=O)c3ccc(Cl)cc3F)nc2c1=O", "values": [
      {"measurement": "FRET activity in words", "setting": "[3]", "result": "inactive"},
      {"measurement": "IC50", "setting": "[2]; Influenza A virus, H3N2", "result": 39, "unit": "µM"}
    ]},
    {"smiles": "O=CNc1nc2c(=O)c(C(=O)O)cn(Cc3ccccc3-c3ccccc3)c2s1", "values": [
      {"measurement": "IC50", "setting": "[3]", "result": 47, "unit": "µM"},
      {"measurement": "CPE activity in words", "setting": "[2]", "result": "inactive"}
    ]},
    {"smiles": "CCOC(=O)c1cn(Cc2ccccc2-c2ccccc2)c2sc(SC)nc2c1=S", "values": [
      {"measurement": "FRET activity in words", "setting": "[3]", "result": "inactive"},
      {"measurement": "inhibition at 50 µM", "setting": "[2]; Influenza A virus, H3N2, @ 50 μM, read-out: CPE % reduction", "result": 35, "unit": "%"}
    ]},
    {"smiles": "Cc1[nH]c2ncnn2c(=O)c1CC(=O)O", "values": [
      {"measurement": "FRET activity in words", "setting": "[3]", "result": "inactive"}
    ]},
    {"smiles": "O=C(O)c1c[nH]c2ccnn2c1=O", "note": "[drawing 208]", "values": [
      {"measurement": "inhibition at 5 µM", "setting": "[3]; 20 min, @ 5 μM, read-out: FRET % reduction of v0", "result": 26, "unit": "%"}
    ]},
    {"smiles": "O=C(O)c1cn(CCc2ccccc2)c2cc(C3CCCC3)nn2c1=O", "note": "[drawing 219]", "values": [
      {"measurement": "FRET % reduction of v0", "setting": "[3]; @ 25 μM", "result": 26, "unit": "% @ 25 μM"},
      {"measurement": "CPE activity in words", "setting": "[2]", "result": "inactive"}
    ]},
    {"smiles": "Nc1cc2n(C(=O)C3(c4ccccc4)CCCC3)cc(C(=O)O)c(=O)n2n1", "note": "[drawing 232]", "values": [
      {"measurement": "FRET activity in words", "setting": "[3]", "result": "inactive"}
    ]}
  ]
}
